Results from patent US20240269304A1, “BCL-XL INHIBITOR ANTIBODY-DRUG CONJUGATES AND METHODS OF USE THEREOF” (Novartis AG, priority 2020, published 2024).
Like-named read-outs stand apart in the source and are kept apart here.

Experiments:
[1] = ADC stability study: % aggregates by SEC after incubation at 37° C. for 168 h; type: physicochemical
Experimental: Size Exclusion Chromatography: Size exclusion chromatography (SEC) was performed for quality control of each ADCs by measuring monomer percentage of the conjugate. The analysis was performed on analytical column Superdex 200 Increase 5/150 GL (GE Healthcare, 28990945) in isocratic conditions 100% PBS pH7.4 (Sigma Life Science, P3813, 10PAK), flow 0.45 mI/min for 12 minutes. The % aggregate fraction of the conjugate sample was quantified based on the peak area absorbance at 280 nm. Its calculation was based on the ratio between the high molecular weight eluent at 280 nm divided by the sum of peak area absorbance at the same wavelength of the high molecular weight and monomeric eluents multiplied by 100.
Characterization of the exemplary ADCs is summarized in Table 13 (coupling, LC-MS method, OAR, aggregation status, ADO stability and yield). The average OAR values were determined using the above LC-MS methods and the percentage of aggregates was measured by size exclusion chromatography (SEC) during the quality control of the ADO and after the stability study (incubation at 37° C. for 168 h).

H1650 cells = assay: CellTiterGlo (CTG) cell viability, 3D, 120 h, H1650 (Example 8); type: cell-based, human; settings: H1650 3D
ALL-SIL cells = assay: CellTiterGlo (CTG) cell viability, 72 h, ALL-SIL (Example 8); type: cell-based
Experimental: ALL-SIL cells were cultivated in RPMI supplemented with 20% heat inactivated fetal bovine serum, penicillin (100 IU/ml), streptomycin (100 μg/ml) and L-glutamine (2 mM). Cell lines were cultured at 37° C. in a humidified atmosphere containing 5% CO2. Cells were seeded in 96 well clear bottom plates (96 well clear-bottom, white, Corning reference 3903) and exposed to the payloads or ADCs for 72 h (serially diluted; 9 concentrations each, triplicates). Effects of payloads or ADCs on cell viability were assessed after 3 days of incubation at 37° C./5% CO2 by quantification of cellular ATP levels using CellTiterGlo at 75 μL reagent/well. All the conditions were tested in triplicates. Luminescence was quantified on a multipurpose plate reader. IC50s were calculated using standard four-parametric curve fitting. […] Each experiment was performed at least twice, with results being reproducible.

DND-41 cells = assay: CellTiterGlo (CTG) cell viability, 72 h, DND-41 (Example 8); type: cell-based
Experimental: DND-41 cells were cultivated in RPMI supplemented with 10% heat inactivated fetal bovine serum, penicillin (100 IU/ml), streptomycin (100 μg/ml) and L-glutamine (2 mM). Cell lines were cultured at 37° C. in a humidified atmosphere containing 5% CO2. […] Effects of payloads or ADCs on cell viability were assessed after 3 days of incubation at 37° C./5% CO2 by quantification of cellular ATP levels using CellTiterGlo at 75 μL reagent/well. All the conditions were tested in triplicates. Luminescence was quantified on a multipurpose plate reader. IC50s were calculated using standard four-parametric curve fitting.

[2] = experiment n1, read-out: H1650 3D CTG IC50 n1
[3] = experiment n2, read-out: H1650 3D CTG IC50 n2
[4] = mean of n1 and n2, read-out: H1650 3D CTG IC50 Mean of n1 and n2
[5] = experiment n1, read-out: ALLSIL CTG 72 h IC50 nM n1
[6] = experiment n2, read-out: ALLSIL CTG 72 h IC50 nM n2
[7] = mean of n1 and n2, read-out: ALLSIL CTG 72 h IC50 nM Mean of n1 and n2
[8] = experiment n1, read-out: DND41 CTG 72 h IC50 nM n1
[9] = experiment n2, read-out: DND41 CTG 72 h IC50 nM n2
[10] = mean of n1 and n2, read-out: DND41 CTG 72 h IC50 nM Mean of n1 and n2

SMILES: CC[N+](CC)(CC#Cc1ccc(OCCCc2sc(N3CCCc4c3nnc(Nc3nc5ccccc5s3)c4C)nc2C(=O)[O-])c(F)c1)Cc1ccc(NC(=O)[C@H](CCCNC(N)=O)NC(=O)[C@@H](NC(=O)CCOCCN2C(=O)CC(C)C2=O)C(C)C)cc1 (stereo partly drawn) [Ab C - L9A-P14]
- Stab w1 +37° C. % Agg (by SEC) [1]: 7%
- IC50 (H1650 cells; [2]): 1.3 nM
- IC50 (H1650 cells; [3]): 0.4 nM
- IC50 (H1650 cells; [4]): 0.85 nM

SMILES: Cc1c(NC2Nc3ccccc3S2)nnc2c1CCCN2c1nc(C(=O)[O-])c(CCCOc2ccc(C#CC[N+]3(Cc4ccc(NC(=O)[C@H](CCCNC(N)=O)NC(=O)[C@@H](NC(=O)CCCCCN5C(=O)CC(C)C5=O)C(C)C)cc4)CCCCC3)cc2F)s1 (stereo partly drawn) [Ab C - L9A-P18]
- Stab w1 +37° C. % Agg (by SEC) [1]: 3%
- IC50 (H1650 cells; [2]): 1.2 nM
- IC50 (H1650 cells; [3]): 1.25 nM
- IC50 (H1650 cells; [4]): 1.23 nM

SMILES: C=C(C)CCCC[C@](C)(CC(=C)[C@@](C)(CC(=C)CCCCCC1C(=C)CC(C)C1=C)C(C)C)C(=C)Cc1ccc(CC(C)(C)CCC[C@]23C[C@]4(C)C[C@](C)(C2)C[C@@](CC2C=CC(c5ccc(C6CCCc7c6ccc(CC6=Cc8ccccc8C6)c7C)cc5C(=C)C)=C2C)(C4)C3)cc1 (stereo partly drawn) [Ab C - L9A-P27]
- Stab w1 +37° C. % Agg (by SEC) [1]: 16%
- IC50 (H1650 cells; [2]): 0.3 nM
- IC50 (H1650 cells; [3]): 0.22 nM
- IC50 (H1650 cells; [4]): 0.26 nM

SMILES: CC(=O)CCCC[C@](C)(CC(=O)[C@@](C)(CC(=O)CCCCCC1C(=O)CC(C)C1=O)C(C)C)C(=O)Cc1ccc(CC(C)(C)CC#Cc2ccc(CCCCC3=C(C(C)=O)C=C(C4CCCc5c4ccc(CC4=Cc6ccccc6C4)c5C)C3)cc2)cc1 (stereo partly drawn) [Ab C - L9A-P28]
- Stab w1 +37° C. % Agg (by SEC) [1]: 15%
- IC50 (H1650 cells; [2]): 0.21 nM
- IC50 (H1650 cells; [3]): 0.2 nM
- IC50 (H1650 cells; [4]): 0.21 nM

SMILES: Cc1c(Nc2nc3ccccc3s2)nnc2c1CCCN2c1nc(C(=O)O)c(CCCOc2ccc(C#CCN(CCN(C)C)C(=O)OCc3ccc(NC(=O)[C@H](CCCNC(N)=O)NC(=O)[C@@H](NC(=O)CCOCCN4C(=O)CC(C)C4=O)C(C)C)cc3)cc2F)s1 (stereo partly drawn) [Ab C - L9C-P12]
- Stab w1 +37° C. % Agg (by SEC) [1]: 4%
- IC50 (H1650 cells; [2]): 0.6 nM
- IC50 (H1650 cells; [3]): 0.9 nM
- IC50 (H1650 cells; [4]): 0.75 nM

SMILES: Cc1c(Nc2nc3ccccc3s2)nnc2c1CC(OCCN(C)C(=O)OCc1ccc(NC(=O)[C@H](CCCNC(N)=O)NC(=O)[C@@H](NC(=O)CCOCCN3C(=O)CC(C)C3=O)C(C)C)cc1)CN2c1nc(C(=O)O)c(CCCOc2ccc(C#CCN(C)C)cc2F)s1 (stereo partly drawn) [Ab C - L9C-P16]
- Stab w1 +37° C. % Agg (by SEC) [1]: 2.4%
- IC50 (H1650 cells; [2]): 3.9 nM
- IC50 (H1650 cells; [3]): 4.2 nM
- IC50 (H1650 cells; [4]): 4.05 nM

SMILES: Cc1c(Nc2nc3ccccc3s2)nnc2c1CCCN2c1nc(C(=O)O)c(CCCOc2ccc(C#CCN3CCN(C(=O)OCc4ccc(NC(=O)[C@H](CCCNC(N)=O)NC(=O)[C@@H](NC(=O)CCOCCN5C(=O)CC(C)C5=O)C(C)C)cc4)CC3)cc2F)s1 (stereo partly drawn) [Ab C - L9C-P17]
- Stab w1 +37° C. % Agg (by SEC) [1]: 22%
- IC50 (H1650 cells; [2]): 2.85 nM
- IC50 (H1650 cells; [3]): 2.51 nM
- IC50 (H1650 cells; [4]): 2.68 nM

SMILES: C=C(C)CCCC[C@](C)(CC(=C)[C@@](C)(CC(=C)CCCCCC1C(=C)CC(C)C1=C)C(C)C)C(=C)Cc1ccc(CCC(=C)C(CCCCC)CCC[C@]23C[C@]4(C)C[C@](C)(C2)C[C@@](CC2C=CC(c5ccc(C(C)c6ccc(CC7=Cc8ccccc8C7)c(C)c6)cc5C(=C)C)=C2C)(C4)C3)cc1 (stereo partly drawn) [Ab C - L9C-P29]
- Stab w1 +37° C. % Agg (by SEC) [1]: 16%
- IC50 (H1650 cells; [2]): 0.13 nM
- IC50 (H1650 cells; [3]): 0.09 nM
- IC50 (H1650 cells; [4]): 0.11 nM

SMILES: C=C(C)CCCC[C@](C)(CC(=C)[C@@](C)(CC(=C)CCCCCC1C(=C)CC(C)C1=C)C(C)C)C(=C)Cc1ccc(CCC(=C)C2CCC(CCC[C@]34C[C@]5(C)C[C@](C)(C3)C[C@@](CC3C=CC(c6ccc(C7CCCc8c7ccc(CC7=Cc9ccccc9C7)c8C)cc6C(=C)C)=C3C)(C5)C4)CC2)cc1 (stereo partly drawn) [Ab C - L9C-P31]
- Stab w1 +37° C. % Agg (by SEC) [1]: 6%
- IC50 (H1650 cells; [2]): 0.07 nM
- IC50 (H1650 cells; [3]): 0.1 nM
- IC50 (H1650 cells; [4]): 0.09 nM

SMILES: Cc1c(Nc2nc3ccccc3s2)nnc2c1CCCN2c1nc(C(=O)O)c(CCCOc2ccc(C#CCN(C)C(=O)OCc3ccc(NC(=O)[C@H](CCCNC(N)=O)NC(=O)[C@@H](NC(=O)CCOCCN4C(=O)CC(C)C4=O)C(C)C)cc3S(=O)(=O)O)cc2F)s1 (stereo partly drawn) [Ab C - L27C-P3]
- Stab w1 +37° C. % Agg (by SEC) [1]: 17%
- IC50 (H1650 cells; [2]): 1.4 nM
- IC50 (H1650 cells; [3]): 2.6 nM
- IC50 (H1650 cells; [4]): 2 nM

SMILES: Cc1cc(N(C)c2nc(C(=O)O)c(CCCOc3ccc(C#CCN(C)C(=O)OCc4ccc(NC(=O)[C@H](C)NC(=O)[C@@H](NC(=O)CCOCCN5C(=O)CC(C)C5=O)C(C)C)cc4CC[C@@H]4O[C@H](C(=O)O)[C@@H](O)[C@H](O)[C@H]4O)cc3F)s2)nnc1Nc1nc2ccccc2s1 (stereo partly drawn) [Ab C -L106C-P7]
- Stab w1 +37° C. % Agg (by SEC) [1]: 29%
- IC50 (H1650 cells; [2]): 1.8 nM
- IC50 (H1650 cells; [3]): 1.5 nM
- IC50 (H1650 cells; [4]): 1.65 nM

SMILES: CC(=O)C1=C(CCCOc2ccc(C#CCC(C)(C)Cc3ccc(NC(=O)[C@H](CCCNC(N)=O)NC(=O)[C@@H](NC(=O)CCOCCN4C(=O)CC(C)C4=O)C(C)C)cc3)cc2C)CC(C2CCCC3C2=NN=C(NC2=Nc4ccccc4C2)C3C)=C1 (stereo partly drawn) [Ab D - L9A-P1]
- IC50 (ALL-SIL cells; [5]): 0.025 nM
- IC50 (ALL-SIL cells; [6]): 0.037 nM
- IC50 (ALL-SIL cells; [7]): 0.031 nM
- Stab w1 +37° C. % Agg (by SEC) [1]: 8%
- IC50 (DND-41 cells; [8]): 0.16 nM
- IC50 (DND-41 cells; [9]): 0.14 nM
- IC50 (DND-41 cells; [10]): 0.15 nM

SMILES: Cc1c(Nc2nc3ccccc3s2)nnc2c1CCCN2c1nc(C(=O)O)c(CCCOc2ccc(C#CCN3CCN(C(=O)OCc4ccc(NC(=O)[C@H](CCCNC(N)=O)NC(=O)[C@@H](NC(=O)CCOCCN5C(=O)CC(C)C5=O)C(C)C)cc4)CC3)cc2F)s1 (stereo partly drawn) [Ab D - L9C-P17]
- IC50 (ALL-SIL cells; [5]): 0.006 nM
- IC50 (ALL-SIL cells; [6]): 0.01 nM
- IC50 (ALL-SIL cells; [7]): 0.008 nM
- Stab w1 +37° C. % Agg (by SEC) [1]: 6%
- IC50 (DND-41 cells; [8]): 2.1 nM
- IC50 (DND-41 cells; [9]): 0.38 nM
- IC50 (DND-41 cells; [10]): 1.24 nM

SMILES: Cc1cc(N(CCCO)C2=NC(C(=O)O)=C(CCCOc3ccc(C#CCN(C)C(=O)OCc4ccc(NC(=O)[C@](C)(CCCNC(N)=O)NC(=O)[C@@H](NC(=O)CCOCCN5C(=O)CC(C)C5=O)C(C)C)cc4)cc3F)C2)nnc1Nc1nc2ccccc2s1 (stereo partly drawn) [Ab D - L9C-P45]
- IC50 (ALL-SIL cells; [5]): 0.36 nM
- IC50 (ALL-SIL cells; [6]): 0.38 nM
- IC50 (ALL-SIL cells; [7]): 0.37 nM
- Stab w1 +37° C. % Agg (by SEC) [1]: 2%
- IC50 (DND-41 cells; [8]): > 100 nM
- IC50 (DND-41 cells; [9]): > 100 nM
- IC50 (DND-41 cells; [10]): > 100 nM

SMILES: Cc1cc(N(CCCC(O)CO)C2=NC(C(=O)O)=C(CCCOc3ccc(C#CCN(C)C(=O)OCc4ccc(NC(=O)[C@H](CCCNC(N)=O)NC(=O)[C@@H](NC(=O)CCOCCN5C(=O)CC(C)C5=O)C(C)C)cc4)cc3F)C2)nnc1Nc1nc2ccccc2s1 (stereo partly drawn) [Ab D - L9C-P46]
- IC50 (ALL-SIL cells; [5]): 0.18 nM
- IC50 (ALL-SIL cells; [6]): 0.2 nM
- IC50 (ALL-SIL cells; [7]): 0.19 nM
- Stab w1 +37° C. % Agg (by SEC) [1]: 6%
- IC50 (DND-41 cells; [8]): > 100 nM
- IC50 (DND-41 cells; [9]): > 100 nM
- IC50 (DND-41 cells; [10]): > 100 nM
